What was measured:
SK-MEL-28 = experiment: Cytotoxicity against human SK-MEL-28 cells assessed as cell growth at 10 uM after 48 hrs by SRB assay relative to control; assay type: functional; settings: SK-MEL-28, 48 h, read-out: Activity
LOX IMVI = experiment: Cytotoxicity against human LOXIMVI cells assessed as cell growth at 10 uM after 48 hrs by SRB assay relative to control; assay type: functional; settings: read-out: Activity
CCRF-CEM = experiment: Cytotoxicity against human CCRF-CEM cells assessed as cell growth at 10 uM after 48 hrs by SRB assay relative to control; assay type: functional; settings: read-out: Activity
MCF7 [1] = experiment: Growth inhibition of human MCF7 cells after 72 hrs by MTT assay; assay type: functional, cell-based; settings: MCF7, 72 h
SF-539 = experiment: Cytotoxicity against human SF539 cells assessed as cell growth at 10 uM after 48 hrs by SRB assay relative to control; assay type: functional; settings: SF-539, 48 h, read-out: Activity
[2] = Cytotoxicity against human EKVX cells assessed as cell growth at 10 uM after 48 hrs by SRB assay relative to control; assay type: functional; settings: read-out: Activity
NCI-H460 = experiment: Cytotoxicity against human NCI-H460 cells assessed as cell growth at 10 uM after 48 hrs by SRB assay relative to control; assay type: functional; settings: NCI-H460, 48 h, read-out: Activity
K562 = experiment: Cytotoxicity against human K562 cells assessed as cell growth at 10 uM after 48 hrs by SRB assay relative to control; assay type: functional; settings: K562, 48 h, read-out: Activity
RPMI-8226 = experiment: Cytotoxicity against human RPMI8226 cells assessed as cell growth at 10 uM after 48 hrs by SRB assay relative to control; assay type: functional; settings: RPMI-8226, 48 h, read-out: Activity
IGROV-1 = experiment: Cytotoxicity against human IGROV1 cells assessed as cell growth at 10 uM after 48 hrs by SRB assay relative to control; assay type: functional; settings: IGROV-1, 48 h, read-out: Activity
MDA-MB-231 [3] = experiment: Antimigratory activity against human MDA-MB-231 cells after 24 hrs by wound-healing assay; assay type: functional, cell-based; settings: MDA-MB-231, 24 h
[4] = Cytotoxicity against human SKOV3 cells assessed as cell growth at 10 uM after 48 hrs by SRB assay relative to control; assay type: functional; settings: SK-OV-3, 48 h, read-out: Activity
MDA-MB-231 [5] = experiment: Growth inhibition of human MDA-MB-231 cells after 72 hrs by MTT assay; assay type: functional, cell-based; settings: MDA-MB-231, 72 h
MDA-MB-468 = experiment: Cytotoxicity against human MDA-MB-468 cells assessed as cell growth at 10 uM after 48 hrs by SRB assay relative to control; assay type: functional; settings: MDA-MB-468, 48 h, read-out: Activity
786-0 = experiment: Cytotoxicity against human 786-0 cells assessed as cell growth at 10 uM after 48 hrs by SRB assay relative to control; assay type: functional; settings: 786-0, 48 h, read-out: Activity
[6] = Cytotoxicity against human OVCAR5 cells assessed as cell growth at 10 uM after 48 hrs by SRB assay relative to control; assay type: functional; settings: OVCAR-5, 48 h, read-out: Activity
MDA-MB-231 [7] = experiment: Cytotoxicity against human MDA-MB-231 cells assessed as growth inhibition after 24 hrs by MTT assay; assay type: cell-based; settings: MDA-MB-231, 24 h
[8] = Cytotoxicity against human PC3 cells assessed as cell growth at 10 uM after 48 hrs by SRB assay relative to control; assay type: functional; settings: PC-3, 48 h, read-out: Activity
SW-620 = experiment: Cytotoxicity against human SW620 cells assessed as cell growth at 10 uM after 48 hrs by SRB assay relative to control; assay type: functional; settings: SW-620, 48 h, read-out: Activity
A498 = experiment: Cytotoxicity against human A498 cells assessed as cell growth at 10 uM after 48 hrs by SRB assay relative to control; assay type: functional; settings: A498, 48 h, read-out: Activity
SNB-75 = experiment: Cytotoxicity against human SNB75 cells assessed as cell growth at 10 uM after 48 hrs by SRB assay relative to control; assay type: functional; settings: SNB-75, 48 h, read-out: Activity
MCF7 [9] = experiment: Cytotoxicity against human MCF7 cells assessed as cell growth at 10 uM after 48 hrs by SRB assay relative to control; assay type: functional; settings: MCF7, 48 h, read-out: Activity
ACHN = experiment: Cytotoxicity against human ACHN cells assessed as cell growth at 10 uM after 48 hrs by SRB assay relative to control; assay type: functional; settings: read-out: Activity
SNB-19 = experiment: Cytotoxicity against human SNB19 cells assessed as cell growth at 10 uM after 48 hrs by SRB assay relative to control; assay type: functional; settings: SNB-19, 48 h, read-out: Activity
SK-MEL-5 = experiment: Cytotoxicity against human SK-MEL-5 cells assessed as cell growth at 10 uM after 48 hrs by SRB assay relative to control; assay type: functional; settings: SK-MEL-5, 48 h, read-out: Activity
[10] = Cytotoxicity against human UACC62 cells assessed as cell growth at 10 uM after 48 hrs by SRB assay relative to control; assay type: functional; settings: UACC-62, 48 h, read-out: Activity
[11] = Cytotoxicity against human UO31 cells assessed as cell growth at 10 uM after 48 hrs by SRB assay relative to control; assay type: functional; settings: UO-31, 48 h, read-out: Activity
[12] = Cytotoxicity against human OVCAR8 cells assessed as cell growth at 10 uM after 48 hrs by SRB assay relative to control; assay type: functional; settings: OVCAR-8, 48 h, read-out: Activity
SF-295 = experiment: Cytotoxicity against human SF295 cells assessed as cell growth at 10 uM after 48 hrs by SRB assay relative to control; assay type: functional; settings: SF-295, 48 h, read-out: Activity
KM12 = experiment: Cytotoxicity against human KM12 cells assessed as cell growth at 10 uM after 48 hrs by SRB assay relative to control; assay type: functional; settings: KM12, 48 h, read-out: Activity
[13] = Cytotoxicity against human UACC257 cells assessed as cell growth at 10 uM after 48 hrs by SRB assay relative to control; assay type: functional; settings: UACC-257, 48 h, read-out: Activity
HL-60(TB) = experiment: Cytotoxicity against human HL-60(TB) cells assessed as cell growth at 10 uM after 48 hrs by SRB assay relative to control; assay type: functional; settings: HL-60, 48 h, read-out: Activity
A549 = experiment: Cytotoxicity against human A549 cells assessed as cell growth at 10 uM after 48 hrs by SRB assay relative to control; assay type: functional; settings: A549, 48 h, read-out: Activity
CAKI-1 = experiment: Cytotoxicity against human Caki1 cells assessed as cell growth at 10 uM after 48 hrs by SRB assay relative to control; assay type: functional; settings: CAKI-1, 48 h, read-out: Activity
[14] = Cytotoxicity against human HCT116 cells assessed as cell growth at 10 uM after 48 hrs by SRB assay relative to control; assay type: functional; settings: HCT-116, 48 h, read-out: Activity
NCI-H23 = experiment: Cytotoxicity against human NCI-H23 cells assessed as cell growth at 10 uM after 48 hrs by SRB assay relative to control; assay type: functional; settings: NCI-H23, 48 h, read-out: Activity
[15] = Cytotoxicity against human HCT15 cells assessed as cell growth at 10 uM after 48 hrs by SRB assay relative to control; assay type: functional; settings: HCT-15, 48 h, read-out: Activity

SMILES	growth at 10 µM (SK-MEL-28)	growth at 10 µM (LOX IMVI)	growth at 10 µM (CCRF-CEM)	IC50 (MCF7 [1])	growth at 10 µM (SF-539)	growth at 10 µM [2]	growth at 10 µM (NCI-H460)	growth at 10 µM (K562)	growth at 10 µM (RPMI-8226)	growth at 10 µM (IGROV-1)	IC50 (MDA-MB-231 [3])	growth at 10 µM [4]	IC50 (MDA-MB-231 [5])	growth at 10 µM (MDA-MB-468)	growth at 10 µM (786-0)	growth at 10 µM [6]	IC50 (MDA-MB-231 [7])	growth at 10 µM [8]	growth at 10 µM (SW-620)	growth at 10 µM (A498)	also measured
CC(C)=CCC[C@H](C)c1ccc(C)c(CNCCCCCO)c1O	112%	83.1%	96.5%	7.6 µM	92.1%	90.5%	94.5%	60.2%	85.3%	91.1%	> 20 µM	99.4%	10.7 µM	79.8%	87.3%	99.4%	> 20 µM	79.5%	91.9%	82.6%	growth at 10 µM (SNB-75): 77.2%; growth at 10 µM (MCF7 [9]): 79.4%; growth at 10 µM (ACHN): 97.7%; growth at 10 µM (SNB-19): 94.6%; growth at 10 µM (SK-MEL-5): 84.9%; growth at 10 µM [10]: 94.2%; growth at 10 µM [11]: 54.9%; growth at 10 µM [12]: 98%; growth at 10 µM (SF-295): 108%; growth at 10 µM (KM12): 97.3%; growth at 10 µM [13]: 93.2%; growth at 10 µM (HL-60(TB)): 87.7%; growth at 10 µM (A549): 91.5%; growth at 10 µM (CAKI-1): 75.2%; growth at 10 µM [14]: 78%; growth at 10 µM (NCI-H23): 92.5%; growth at 10 µM [15]: 86.1%
CC(C)=CCC[C@H](C)c1ccc(C)c2c1OCN(CCO)C2	111%	100%	87.5%	8.4 µM	88.2%	97.2%	96%	77.7%	83.2%	66.7%	11.1 µM	105%	20.3 µM	82.5%	61%	83.7%	> 20 µM	76.9%	100%	47.2%	growth at 10 µM (SNB-75): 58.7%; growth at 10 µM (MCF7 [9]): 83.9%; growth at 10 µM (ACHN): 90.1%; growth at 10 µM (SNB-19): 57.9%; growth at 10 µM (SK-MEL-5): 81.2%; growth at 10 µM [10]: 96.1%; growth at 10 µM [11]: 42.4%; growth at 10 µM [12]: 86.3%; growth at 10 µM (SF-295): 98.6%; growth at 10 µM (KM12): 103%; growth at 10 µM [13]: 92.3%; growth at 10 µM (HL-60(TB)): 90.8%; growth at 10 µM (A549): 82.4%; growth at 10 µM (CAKI-1): 91.6%; growth at 10 µM [14]: 71.8%; growth at 10 µM (NCI-H23): 81.7%; growth at 10 µM [15]: 105%
CC(C)=CCC[C@H](C)c1ccc(C)c(CNCCO)c1O	112%	88.7%	102%	> 20 µM	96.5%	89%	102%	76.8%	86.9%	94.9%	> 20 µM	88.9%	14.4 µM	81.7%	83.7%	87.6%	> 20 µM	88.1%	100%	66.5%	growth at 10 µM (SNB-75): 77.7%; growth at 10 µM (MCF7 [9]): 105%; growth at 10 µM (ACHN): 97.9%; growth at 10 µM (SNB-19): 88.1%; growth at 10 µM (SK-MEL-5): 92.5%; growth at 10 µM [10]: 92.7%; growth at 10 µM [11]: 54.7%; growth at 10 µM [12]: 89.6%; growth at 10 µM (SF-295): 105%; growth at 10 µM (KM12): 98.7%; growth at 10 µM [13]: 81.7%; growth at 10 µM (HL-60(TB)): 92.7%; growth at 10 µM (A549): 94.4%; growth at 10 µM (CAKI-1): 74.6%; growth at 10 µM [14]: 93.4%; growth at 10 µM (NCI-H23): 89.1%; growth at 10 µM [15]: 98.6%

— ChEMBL document CHEMBL3390836, “Mannich- and LedererManasse-based analogues of the natural product S-(+)-curcuphenol as cancer proliferation and migration inhibitors” (Medchemcomm, 2012)
